Laboratory results: paper PMC3506619, “NADP^+ Binding to the Regulatory Subunit of Methionine Adenosyltransferase II Increases Intersubunit Binding Affinity in the Hetero-Trimer” (PLoS ONE, 2012)
Positions count from the first letter of the chain named.

What was measured:
[1] = target: T1, MAT II (α2 dimer + wild type β hetero-trimer) (Homo sapiens, UniProt P31153, G193S/A233V, form not given); test: MAT activity assay (AdoMet synthesis); format: biochemical; settings: 5 mM methionine, 37 °C, no added NADP+
T1 construct: gene MAT2A; hetero-trimer 2:1; with Methionine adenosyltransferase 2 subunit beta
Source text: MAT activity assay (AdoMet synthesis) on MAT II (α2 dimer + wild type β hetero-trimer)

[2] = target: T2, refolded-α2 (MAT α2 homo-dimer) (Homo sapiens, UniProt P31153, G193S/A233V); test: MAT activity assay (AdoMet synthesis); format: biochemical; settings: 5 mM methionine, 37 °C, no added NADP+
T2 construct: gene MAT2A; 43447 Da; dimer (tetramer at higher concentration); all cloned ORFs carry A233V and G193S
Source text: MAT activity assay (AdoMet synthesis) on refolded-α2 (MAT α2 homo-dimer)

[3] = target: T3, Truncated MAT II (α2 dimer + ΔS16 β) (Homo sapiens, UniProt P31153, G193S/A233V); test: MAT activity assay (AdoMet synthesis); format: biochemical; settings: 5 mM methionine, 37 °C, no added NADP+
T3 construct: gene MAT2A; ratio 2:1; with Methionine adenosyltransferase 2 subunit beta
Source text: MAT activity assay (AdoMet synthesis) on Truncated MAT II (α2 dimer + ΔS16 β)

[4] = target: T4, MAT β subunit (regulatory β subunit, V1 form) (Homo sapiens, UniProt Q9NZL9); test: isothermal titration calorimetry; format: binding; settings: read-out: NADP^+→β
T4 construct: gene MAT2B; full length V1 from GST fusion in E. coli, TEV-cut, GSH linker retained at N-terminus; monomer/dimer equilibrium
T4 sequence (Q9NZL9 1-334): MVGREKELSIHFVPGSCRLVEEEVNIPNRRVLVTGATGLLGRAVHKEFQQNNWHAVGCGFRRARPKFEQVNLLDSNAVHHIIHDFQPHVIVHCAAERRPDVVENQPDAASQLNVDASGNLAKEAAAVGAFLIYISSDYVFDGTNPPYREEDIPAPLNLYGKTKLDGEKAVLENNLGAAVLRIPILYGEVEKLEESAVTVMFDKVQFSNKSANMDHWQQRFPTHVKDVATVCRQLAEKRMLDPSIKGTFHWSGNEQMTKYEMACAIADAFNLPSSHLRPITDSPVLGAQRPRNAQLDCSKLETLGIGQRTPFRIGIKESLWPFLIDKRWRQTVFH
Source text: isothermal titration calorimetry on MAT β subunit (regulatory β subunit, V1 form)

[5] = target: T5, MAT β subunit (regulatory β subunit, V1 form) (Homo sapiens, UniProt Q9NZL9, K163A/Y159F); test: isothermal titration calorimetry; format: binding
T5 construct: gene MAT2B; full length V1 from GST fusion in E. coli, TEV-cut, GSH linker retained at N-terminus; monomer/dimer equilibrium
T5 sequence (Q9NZL9 1-334 Y159F/K163A): T4 sequence (Q9NZL9 1-334) with Y159F, K163A

T3 sequence (P31153 whole entry G193S/A233V, stated change not applied, one chain of several, the tested form may be a part): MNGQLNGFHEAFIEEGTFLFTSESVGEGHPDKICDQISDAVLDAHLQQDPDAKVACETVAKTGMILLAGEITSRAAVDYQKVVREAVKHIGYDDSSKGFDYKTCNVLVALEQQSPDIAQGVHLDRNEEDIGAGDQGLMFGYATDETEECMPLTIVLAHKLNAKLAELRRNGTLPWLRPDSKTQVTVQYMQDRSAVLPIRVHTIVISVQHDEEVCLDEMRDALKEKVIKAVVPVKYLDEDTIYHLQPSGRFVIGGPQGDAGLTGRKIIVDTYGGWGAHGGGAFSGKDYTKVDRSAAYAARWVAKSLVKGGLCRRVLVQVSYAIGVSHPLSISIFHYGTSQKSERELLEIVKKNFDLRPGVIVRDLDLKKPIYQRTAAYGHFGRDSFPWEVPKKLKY
T2 sequence (P31153 whole entry G193S/A233V): as the sequence (P31153 whole entry G193S/A233V, stated change not applied, one chain of several, the tested form may be a part) above
T1 sequence (P31153 whole entry G193S/A233V, form open): as the sequence (P31153 whole entry G193S/A233V, stated change not applied, one chain of several, the tested form may be a part) above
T1 sequence (Q9NZL9 whole entry Y159F/K163A partner, form open): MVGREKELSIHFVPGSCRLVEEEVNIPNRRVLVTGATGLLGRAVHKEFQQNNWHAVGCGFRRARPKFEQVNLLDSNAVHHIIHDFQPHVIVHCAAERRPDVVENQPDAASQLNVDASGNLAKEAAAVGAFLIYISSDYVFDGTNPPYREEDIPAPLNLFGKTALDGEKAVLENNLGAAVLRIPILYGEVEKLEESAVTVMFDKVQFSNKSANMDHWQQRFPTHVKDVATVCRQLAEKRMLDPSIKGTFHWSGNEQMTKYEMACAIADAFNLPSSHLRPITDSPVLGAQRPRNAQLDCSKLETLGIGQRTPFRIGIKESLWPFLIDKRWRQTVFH

Km [1] [µM] | Km [2] [µM] | Km [3] [µM] | Kd [4] [µM] | Kd [5] [µM] | Structure (SMILES)
125 ± 32.2 | 254 ± 66.2 | 151 ± 81.4 |  |  | Nc1ncnc2c1ncn2[C@@H]1O[C@H](COP(=O)(O)OP(=O)(O)OP(=O)(O)O)[C@@H](O)[C@H]1O [ATP]
 |  |  | 1.7 | > 150 | NC(=O)c1ccc[n+]([C@@H]2O[C@H](COP(=O)(O)OP(=O)(O)OC[C@H]3O[C@@H](n4cnc5c(N)ncnc54)[C@H](OP(=O)(O)O)[C@@H]3O)[C@@H](O)[C@H]2O)c1 [NADP^+]
